According to patent publication US20230414565A1, “COMPOSITIONS AND METHODS FOR TREATING HEMATOLOGICAL MALIGNANCIES” (Magenta Therapeutics, Inc., priority 2022, published 2023):
Where two headings read alike, the source gives them in different places.

What was measured:
[1] = test system: graft cell subsets (T cells, B cells, NK cells, TNC); conditions: cited from earlier work
CD34+ cells [2] = conditions: historical plerixafor alone data, Devine et al., Blood 2008; cited from earlier work
CD34+ cells [3] = assay: Phase 1 clinical trial: mobilization of CD34+ cells into peripheral blood, multicolor flow cytometry
CD34+CD90+CD45RA− cells [4] = assay: Phase 1 clinical trial: mobilization of CD34+CD90+CD45RA− cells into peripheral blood, multicolor flow cytometry
Procedure: (§1) The dose of MGTA-145 was one of 0.0075 mg/kg, 0.015 mg/kg, 0.03 mg/kg, 0.075 mg/kg, 0.15 mg/kg, or 0.3 mg/kg. […] The dose of MGTA-145 was one of 0.015 mg/kg, 0.03 mg/kg, 0.075 mg/kg, or 0.15 mg/kg. […] The dose of MGTA-145 was one of 0.03 mg/kg or 0.075 mg/kg.
(§2) Mobilization of white blood cells (WBCs), neutrophils, lymphocytes, basophils, and eosinophils was quantified by automated hematology analyzer.

MMP-9 = assay: Phase 1 clinical trial: plasma MMP-9 and TIMP-1, sandwich immunoassay; type: in vivo, human; conditions: MGTA-145 monotherapy, all six doses
Procedure: (§3) Additionally, blood samples were analyzed by multicolor flow cytometry to quantify changes in expression of neutrophil activation markers such as L-selectin, CD11b, CD18, and CD66. Additionally, matrix metalloproteinase 9 (MMP-9), a neutrophil protease believed to mediate mobilization in response to MGTA-145, as well as its cognate inhibitor, TIMP-1, were quantified in plasma samples collected at the same time points by sandwich immunoassay.

[5] = test system: neutrophil activation markers (L-selectin, CD11b, CD18, CD66); assay: Phase 1 clinical trial: neutrophil activation markers, multicolor flow cytometry; type: in vivo, human; conditions: MGTA-145 monotherapy
Procedure: as §3

CXCR2 = molecular target: T1, CXCR2 (Homo sapiens, UniProt P25025); assay: Phase 1 clinical trial: CXCR2 expression on peripheral blood neutrophils; type: in vivo
T1 construct: endogenous in cells; host or cells: peripheral blood neutrophils of trial subjects
T1 sequence (P25025 1-360): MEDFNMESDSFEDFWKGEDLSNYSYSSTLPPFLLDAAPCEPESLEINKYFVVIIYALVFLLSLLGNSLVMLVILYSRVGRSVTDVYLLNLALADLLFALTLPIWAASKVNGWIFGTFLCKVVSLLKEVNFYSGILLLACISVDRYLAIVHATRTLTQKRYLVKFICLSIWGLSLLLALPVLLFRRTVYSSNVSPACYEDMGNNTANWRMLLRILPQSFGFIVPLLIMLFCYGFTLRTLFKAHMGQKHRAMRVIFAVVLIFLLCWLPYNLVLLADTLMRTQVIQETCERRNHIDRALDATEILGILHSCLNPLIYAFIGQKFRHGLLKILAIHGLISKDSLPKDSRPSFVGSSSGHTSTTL

CD45.2 mice = assay: Primary and secondary transplantation of mobilized mouse cells at limit dilution (CRU); type: in vivo; conditions: FIG. 25, right panel; versus the other cohorts
Source text: Mice (CD45.1) were mobilized according to the scheme shown in FIG. 24 and mobilized cells transplanted into CD45.2 mice at limit dilution.

[6] = test system: hematopoietic stem and progenitor cell mobilization; conditions: U.S. Pat. Nos. 6,080,398 and 6,447,766; cited from earlier work
[7] = Phase 1 clinical trial: treatment emergent adverse events; conditions: Part A; MGTA-145 0.0075-0.3 mg/kg, n = 24
CD34+ cells [8] = assay: Phase 1 Part D: apheresis collection yield of CD34+ cells
Procedure: as §1
(§4) The table documents the body weight of each subject, the total CD34+ cells that were obtained through the apheresis procedure, the normalized CD34+ cells/kg of body weight, and the percentage of CD34+ cells that were CD90+CD45RA−.

CD34+CD90+CD45RA− cells [9] = assay: Phase 1 Part D: apheresis collection of CD34+CD90+CD45RA− cells; conditions: for CD90+/kg (CD34+CD90+CD45RA− cells), mean / CD90+/kg (CD34+CD90+CD45RA− cells), median: 2 h stagger after plerixafor; for CD90+ (% of CD34+): 2 h stagger after plerixafor (Table 13)
Procedure: as §1, §4

neutrophils = assay: Phase 1 clinical trial: mobilization of neutrophils, automated hematology analyzer; conditions: MGTA-145 monotherapy
Procedure: as §1, §2

white blood cells (WBCs) = assay: Phase 1 clinical trial: mobilization of white blood cells, automated hematology analyzer; conditions: MGTA-145 monotherapy
Procedure: as §1, §2

[10] = test system: neutrophil activation markers (L-selectin, CD11b, CD18, CD66); conditions: 5 days of G-CSF; Falanga et al., Blood 1999; cited from earlier work
[11] = G-CSF; Pulsiper et al. (2009) Blood; cited from earlier work
[12] = Chen et al., 2019, 2 LP for plerixafor (N = 50+), 1 LP for G-CSF (N = 112+)
[13] = Devine et al, 2008, yield of 1 LP, plerixafor N = 24, G-CSF N = 8
[14] = Part B, pooled placebo + plerixafor on Day 1
[15] = Part C, pooled placebo + plerixafor on Day 1
[16] = Pooled B + C, pooled placebo + plerixafor on Day 1
[17] = plerixafor alone, MGTA-145 dose 0
[18] = 0.03 mg/kg MGTA-145 and plerixafor (staggered 2 hour)
[19] = higher doses (0.075, 0.15, 0.3 mg/kg), 2 hours post administration
[20] = lower doses (0.0075, 0.015, 0.03 mg/kg), between 1 and 2 hours post administration
[21] = MGTA-145 monotherapy 0.03 mg/kg
[22] = MGTA-145 monotherapy, the other doses
[23] = Part A, MGTA-145 on Day 1, 0.03 mg/kg
[24] = Part A, MGTA-145 on Day 1, 0.3 mg/kg
[25] = G-CSF, N = 78 healthy donors, Chaidos et al, Blood 2012

c1cc(CN2CCCNCCNCCCNCC2)ccc1CN1CCCNCCNCCCNCC1 [plerixafor, 1,1′-[1,4-phenylenebis(methylene)]-bis-1,4,8,11-tetra-azacyclotetradecane]
Graft CD3+, median [1, 12]: 6e+08 kg⁻¹ | Graft CD4+, median [1, 12]: 3.6e+08 kg⁻¹ | Graft CD8+, median [1, 12]: 2.2e+08 kg⁻¹ | Graft CD19+, median [1, 12]: 1.5e+08 kg⁻¹ | Graft CD34+, median [1, 12]: 4.7e+06 kg⁻¹ | Graft CD56+, median [1, 12]: 4e+07 kg⁻¹ | Graft CD3+, median [1, 13]: 4.6e+08 kg⁻¹ | Graft CD4+, median [1, 13]: 3.2e+08 kg⁻¹ | Graft CD8+, median [1, 13]: 1.3e+08 kg⁻¹ | Graft CD34+, median [1, 13]: 2.9e+06 kg⁻¹ | Graft CD56+, median [1, 13]: 3e+07 kg⁻¹ | Graft CD19+, median ([1]; Devine et al, 2008, yield of 1 LP, plerixafor N = 24): 1e+08 kg⁻¹ | Patients with peak CD34+ ≥20 cells/μL (CD34+ cells [2]): 28% | Patients with peak CD34+ ≥40 cells/μL (CD34+ cells [2]): 4% | Peak CD34+ (#/μL) Median (CD34+ cells [3]; Part B, plerixafor alone, MGTA-145 dose 0): 26 #/μL | Peak CD34+ (#/μL) Median (CD34+ cells [3]; [14]): 26 #/μL | Percent ≥20/μL peak CD34+ (CD34+ cells [3]; [14]): 64% | Peak CD34+ (#/μL) Median (CD34+ cells [3]; Part C first day, plerixafor alone, MGTA-145 dose 0): 18 #/μL | Peak CD34+ (#/μL) Median (CD34+ cells [3]; [15]): 18 #/μL | Percent ≥20/μL peak CD34+ (CD34+ cells [3]; [15]): 0% | Percent ≥20/μL peak CD34+ (CD34+ cells [3]; Part C, pooled placebo + plerixafor on Day 2): 50% | Peak CD34+ (#/μL) Median (CD34+ cells [3]; Pooled B + C, plerixafor alone, MGTA-145 dose 0): 20 #/μL | Peak CD34+ (#/μL) Median (CD34+ cells [3]; [16]): 23 #/μL | Percent ≥20/μL peak CD34+ (CD34+ cells [3]; [16]): 56% | Tmax (time of the peak CD34+ level) Median (CD34+ cells [3]; plerixafor alone): 8 h | Peak CD34+/μL (FC vs. baseline) Median (CD34+ cells [3]; [17]): 15 | Peak CD34+/μL Median (CD34+ cells [3]; [17]): 20 µL⁻¹ | Peak CD34+CD90+CD45RA− mobilization (median) (CD34+CD90+CD45RA− cells [4]; plerixafor alone): 8 cells/μL

MGTA-145: CXCR2 agonist; truncated Gro-β with deletion of the first four N-terminal amino acids (SEQ ID NO: 2)
Molar ratio MMP-9:TIMP-1 (MMP-9): rapid increase 30 minutes post-administration | Plasma levels of MMP-9 (MMP-9): increased sharply within 30 minutes post-administration | Change relative to baseline of neutrophil activation marker CD66 ([5]; all doses except the highest (0.3 mg/kg)): < 2 fold | Change relative to baseline of neutrophil activation marker L-selectin ([5]; all six doses): < 2 fold | Change relative to baseline of neutrophil activation markers CD11b and CD18 ([5]; all six doses): < 2 fold | CXCR2 expression recovery prior to the second dose (CXCR2; MGTA-145 0.07 mg/kg, staggered dosing, two consecutive days): ~80 % of baseline | CXCR2 on peripheral neutrophils (CXCR2; MGTA-145 monotherapy): rapid downregulation of its target receptor, CXCR2, on peripheral neutrophils, followed by recovery over 24 hours | Engraftment rates, secondary transplantation (CD45.2 mice): vastly improved engraftment rates | Potency of hematopoietic stem and progenitor cell mobilization [6]: potency superior to that of Gro-β by multiple orders of magnitude | Back pain/Musculoskeletal pain [7]: 19 n (%) | Subjects with any drug related TEAE [7]: 19 n (%) | CD34+/kg, median (CD34+ cells [8]; [18]): 4.3 ×10^6 cells | Total CD34+ Yield, median (CD34+ cells [8]; [18]): 321 (239-500) ×10^6 cells | CD34+/kg, mean (CD34+ cells [8]; MGTA-145 0.03 mg/kg, 2 h stagger after plerixafor): 4.1 ×10^6 | CD90+/kg (CD34+CD90+CD45RA− cells), mean (CD34+CD90+CD45RA− cells [9]; MGTA-145 0.03 mg/kg): 1.3 ×10^6 | CD90+/kg (CD34+CD90+CD45RA− cells), median (CD34+CD90+CD45RA− cells [9]; MGTA-145 0.03 mg/kg): 1.5 ×10^6 | CD90+ (% of CD34+) (CD34+CD90+CD45RA− cells [9]; MGTA-145 0.03 mg/kg, 0.03 mg/kg): 31% | CD90+/kg (CD34+CD90+CD45RA− cells), mean (CD34+CD90+CD45RA− cells [9]; MGTA-145 […]): 1.4 ×10^6 | CD90+/kg (CD34+CD90+CD45RA− cells), median (CD34+CD90+CD45RA− cells [9]; MGTA-145 […]): 1.2 ×10^6 | CD90+ (% of CD34+) (CD34+CD90+CD45RA− cells [9]; MGTA-145 […], […]): 37% | Initial plateau of neutrophil mobilization (neutrophils; [19]): 5-8 ×10^3 cells/μL | Peak mobilization of neutrophils (neutrophils; [20]): 13-15 ×10^3 cells/μL | Initial plateau of WBC mobilization (white blood cells (WBCs); [19]): 6-10 ×10^3 cells/μL | Peak mobilization of WBCs (white blood cells (WBCs); [20]): 15-17 ×10^3 cells/μL | Fold increase of CD34+ cells (CD34+ cells [3]; [21]): 7 fold | Peak concentration of CD34+ cells (CD34+ cells [3]; [21]): ~10 cells/μL | Time of peak CD34+ mobilization post administration (CD34+ cells [3]; MGTA-145 monotherapy, single dose, across the six doses 0.0075-0.3 mg/kg): about 30 minutes | Fold increase of CD34+ cells (CD34+ cells [3]; [22]): 2-3 fold | Peak concentration of CD34+ cells (CD34+ cells [3]; MGTA-145 monotherapy, the other doses (0.0075, 0.015, 0.075, 0.15, 0.3 mg/kg)): ~5 cells/μL | Peak CD34+ (#/μL) Median (CD34+ cells [3]; [23]): 12 #/μL | Percent ≥20/μL peak CD34+ (CD34+ cells [3]; [23]): 0% | Peak CD34+ (#/μL) Median (CD34+ cells [3]; [24]): 3 #/μL | Percent ≥20/μL peak CD34+ (CD34+ cells [3]; [24]): 0% | Fold increase of CD34+CD90+CD45RA− cells (CD34+CD90+CD45RA− cells [4]; [21]): ~8.3 fold | Peak concentration of CD34+CD90+CD45RA− cells (CD34+CD90+CD45RA− cells [4]; [21]): ~3 cells/μL | Time of peak CD34+CD90+CD45RA− mobilization post administration (CD34+CD90+CD45RA− cells [4]; MGTA-145 monotherapy, six doses): 30 min | Fold increase of CD34+CD90+CD45RA− cells (CD34+CD90+CD45RA− cells [4]; [22]): 2-3.5 fold | Peak concentration of CD34+CD90+CD45RA− cells (CD34+CD90+CD45RA− cells [4]; [22]): 1-1.6 cells/μL

Gro-β T N65D: Gro-β T variant with aspartic acid in place of asparagine at position 65
Potency of hematopoietic stem and progenitor cell mobilization [6]: potency that is substantially greater than that of Gro-β T

B1: G-CSF: standard mobilization agent, five days of Filgrastim (G-CSF) (protein, UniProt P09919 31-207, looked up)
Granulocyte …: TPLGPASSLPQSFLLKCLEQVRKIQGDGAALQEKLVSECATYKLCHPEELVLLGHSLGIPWAPLSSCPSQALQLAGCLSQLHSGLFLYQGLLQALEGISPELGPTLDTLQLDVADFATTIWQQMEELGMAPALQPTQGAMPAFASAFQRRAGGVLVASHLQSFLEVSYRVLRHLAQP
modifications: filgrastim
Increase in neutrophil activation markers [10]: ~2.7 fold | Tolerability [11]: Majority with bone pain, | Graft CD3+, median [1, 12]: 2.5e+08 kg⁻¹ | Graft CD4+, median [1, 12]: 1.5e+08 kg⁻¹ | Graft CD8+, median [1, 12]: 7e+07 kg⁻¹ | Graft CD19+, median [1, 12]: 5e+07 kg⁻¹ | Graft CD34+, median [1, 12]: 4.2e+06 kg⁻¹ | Graft CD56+, median [1, 12]: 1e+07 kg⁻¹ | Graft CD3+, median [1, 13]: 1.3e+08 kg⁻¹ | Graft CD4+, median [1, 13]: 1.1e+08 kg⁻¹ | Graft CD8+, median [1, 13]: 4e+07 kg⁻¹ | Graft CD34+, median [1, 13]: 4.2e+06 kg⁻¹ | Graft CD56+, median [1, 13]: 2e+07 kg⁻¹ | TNC/kg donor weight, median (range) ([1]; G-CSF, N = 40 healthy donors, Singhal et al, BMT 2000): 7.2 (3.2-14.0) ×10^8 cells | Frequency of CD3+ T cells in graft, median [1, 25]: 45.3 % of CD45+ | Frequency of CD4+ T cells in graft, median [1, 25]: 29.8 % of CD45+ | Frequency of CD8+ T cells in graft, median [1, 25]: 11.8 % of CD45+ | Frequency of CD19+ B cells in graft, median [1, 25]: 10.5 % of CD45+ | Frequency of CD56+ NK cells in graft, median [1, 25]: 3.2 % of CD45+ | Frequency of Tregs in graft, median [1, 25]: 3.5 % of CD4+ T cells | Frequency of iNKT cells in graft, median [1, 25]: 0.04 % of CD3+
